27 molecules from US7544694B2, “Substituted diaza-spiro-[5.5]-undecane derivatives and their use as neurokinin antagonists” (Janssen Pharmaceutica N.V., priority 2004, dated 2009) can be followed below.

Holding throughout (assay type): cell-based
The target of one test is NK1 (Homo sapiens, UniProt P25103). Kind of test: Signal transduction (ST), intracellular Ca++ (FLIPR), functional NK1 antagonistic activity. As to conditions: antagonist, read-out: NK1 pIC50 (converted). The procedure: (§1) This test evaluates in vitro functional NK1 antagonistic activity. For the measurements of intracellular Ca^++ concentrations the cells were grown on 96-well (black wall/transparent bottom) plates from Costar for 2 days until they reached confluence. The cells were loaded with 2 μM Fluo3 in DMEM containing 0.1% BSA and 2.5 mM probenecid for 1 h at 37° C. They were washed 3× with a Krebs buffer (140 mM NaCl, 1 mM MgCl2×6H2O, 5 mM KCl, 10 mM glucose, 5 mM HEPES; 1.25 mM CaCl2; pH 7.4) containing 2.5 mM probenecid and 0.1% BSA (Ca^++-buffer). The cells were preincubated with a concentration range of antagonists for 20 min at RT and Ca^++-signals after addition of the agonists were measured in a Fluorescence Image Plate Reader (FLIPR from Molecular Devices, Crawley, England). The peak of the Ca^++-transient was considered as the relevant signal and the mean values of corresponding wells were analysed as described below.
(§2) The sigmoidal dose response curves were analysed by computerised curve-fitting, using the GraphPad Program. The EC50-value of a compound is the effective dose showing 50% of maximal effect. For mean curves the response to the agonist with the highest potency was normalised to 100%. For antagonist responses the IC50-value was calculated using non-linear regression.
(§3) The last columns indicate—without being limited thereto—for which action the compounds might be most suitable. Of course, since for some neurokinin receptors no data was determined, it is obvious that these compounds might be attributed to another suitable use.

In a further test the target is T1, NK2 (Homo sapiens, UniProt P21452).
T1 sequence (P21452 1-398): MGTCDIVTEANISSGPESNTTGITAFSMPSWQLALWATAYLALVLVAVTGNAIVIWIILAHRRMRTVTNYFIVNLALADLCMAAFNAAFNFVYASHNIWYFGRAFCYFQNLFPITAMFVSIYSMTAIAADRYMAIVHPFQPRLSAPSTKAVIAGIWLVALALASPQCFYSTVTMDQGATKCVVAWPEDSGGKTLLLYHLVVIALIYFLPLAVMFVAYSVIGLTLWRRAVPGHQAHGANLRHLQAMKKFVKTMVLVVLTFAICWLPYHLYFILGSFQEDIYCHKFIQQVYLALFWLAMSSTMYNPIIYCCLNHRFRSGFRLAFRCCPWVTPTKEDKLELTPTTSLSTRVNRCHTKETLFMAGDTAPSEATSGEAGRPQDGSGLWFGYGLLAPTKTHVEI
Kind of test: Signal transduction (ST), intracellular Ca++ (FLIPR), NK2. As to conditions: antagonist, read-out: NK2 pIC50 (converted). As for the experimental part:
[The source words this procedure for another target and reports this target under the same test.] as §1, §2, §3

The target of the next test is T2, NK3 (Homo sapiens, UniProt P29371).
T2 sequence (P29371 1-465): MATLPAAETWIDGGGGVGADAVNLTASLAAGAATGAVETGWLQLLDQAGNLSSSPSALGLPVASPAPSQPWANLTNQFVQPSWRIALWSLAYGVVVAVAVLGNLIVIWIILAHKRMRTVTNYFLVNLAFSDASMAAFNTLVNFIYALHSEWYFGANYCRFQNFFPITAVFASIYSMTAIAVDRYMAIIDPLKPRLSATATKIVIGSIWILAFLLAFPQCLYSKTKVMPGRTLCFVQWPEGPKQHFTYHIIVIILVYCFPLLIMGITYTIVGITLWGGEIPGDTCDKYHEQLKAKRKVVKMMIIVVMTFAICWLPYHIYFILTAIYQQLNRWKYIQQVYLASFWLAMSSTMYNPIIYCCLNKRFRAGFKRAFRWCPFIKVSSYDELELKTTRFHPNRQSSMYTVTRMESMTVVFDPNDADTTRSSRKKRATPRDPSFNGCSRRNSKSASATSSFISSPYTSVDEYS
The test is described as follows: Signal transduction (ST), intracellular Ca++ (FLIPR), NK3. The conditions noted are these: antagonist, read-out: NK3 pIC50 (converted). The procedure: [The source words this procedure for another target and reports this target under the same test.] as §1, §2, §3

A value given as a limit tells only on which side of the number the result lay.

Sequence of NK1 (P25103 whole entry): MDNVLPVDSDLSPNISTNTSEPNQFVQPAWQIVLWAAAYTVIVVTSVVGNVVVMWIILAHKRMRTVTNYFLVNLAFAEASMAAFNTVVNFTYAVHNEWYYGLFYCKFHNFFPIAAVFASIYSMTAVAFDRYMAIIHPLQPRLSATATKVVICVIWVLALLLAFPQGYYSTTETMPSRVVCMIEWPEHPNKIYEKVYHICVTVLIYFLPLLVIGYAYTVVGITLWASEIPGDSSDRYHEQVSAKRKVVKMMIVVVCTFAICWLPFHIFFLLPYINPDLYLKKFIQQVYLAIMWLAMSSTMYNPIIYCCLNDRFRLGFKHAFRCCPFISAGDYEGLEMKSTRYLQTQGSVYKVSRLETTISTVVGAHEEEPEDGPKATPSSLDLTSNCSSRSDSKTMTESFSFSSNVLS

As for `O=C(CC1CCCCC1)N1CCC2(CC1)CCN([C@H]1CCN(C(=O)c3cc(C(F)(F)F)cc(C(F)(F)F)c3)[C@H](Cc3ccccc3)C1)CC2` [Compound 71], the values for the IC50 on NK1, on NK2 and at NK3 were 0.0933 µM, 9.77 µM and more than 10 µM, respectively.

With `O=C(CC12CC3CC(CC(C3)C1)C2)N1CCC2(CC1)CCN([C@H]1CCN(C(=O)c3cc(C(F)(F)F)cc(C(F)(F)F)c3)[C@H](Cc3ccccc3)C1)CC2` [Compound 72], the IC50 was 0.324 µM on NK1, more than 10 µM at NK2 and more than 10 µM on NK3.

Consider `O=C(NCC(=O)N1CCC2(CC1)CCN([C@H]1CCN(C(=O)c3cc(C(F)(F)F)cc(C(F)(F)F)c3)[C@H](Cc3ccccc3)C1)CC2)c1ccco1` [Compound 73], for which the IC50 is 0.0331 µM at NK1, more than 10 µM at NK2 and more than 10 µM at NK3.

Turning to `Cc1ccc(OCC(=O)N2CCC3(CC2)CCN([C@H]2CCN(C(=O)c4cc(C(F)(F)F)cc(C(F)(F)F)c4)[C@H](Cc4ccccc4)C2)CC3)c(C)c1` [Compound 74], the results for the IC50 at NK1, at NK2 and on NK3 were 0.389 µM, more than 10 µM and more than 10 µM, respectively.

For `O=C(Cc1ccsc1)N1CCC2(CC1)CCN([C@H]1CCN(C(=O)c3cc(C(F)(F)F)cc(C(F)(F)F)c3)[C@H](Cc3ccccc3)C1)CC2` [Compound 76], the IC50 was 0.0257 µM on NK1, 1.15 µM at NK2 and 3.98 µM at NK3.

Turning to `O=C(Cn1cnnn1)N1CCC2(CC1)CCN([C@H]1CCN(C(=O)c3cc(C(F)(F)F)cc(C(F)(F)F)c3)[C@H](Cc3ccccc3)C1)CC2` [Compound 77], the IC50 is 0.0457 µM on NK1, approximately 8.13 µM on NK2 and more than 10 µM at NK3.

Turning to `O=C(CN1CCCC1=O)N1CCC2(CC1)CCN([C@H]1CCN(C(=O)c3cc(C(F)(F)F)cc(C(F)(F)F)c3)[C@H](Cc3ccccc3)C1)CC2` [Compound 78], the IC50 is 0.269 µM on NK1, more than 10 µM at NK2 and more than 10 µM at NK3.

Regarding `O=C(CN1CCOC1=O)N1CCC2(CC1)CCN([C@H]1CCN(C(=O)c3cc(C(F)(F)F)cc(C(F)(F)F)c3)[C@H](Cc3ccccc3)C1)CC2` [Compound 79], the IC50 at NK1 is 0.17 µM; at NK2 it was more than 10 µM; on NK3, more than 10 µM.

Turning to `Cc1cn(CC(=O)N2CCC3(CC2)CCN([C@H]2CCN(C(=O)c4cc(C(F)(F)F)cc(C(F)(F)F)c4)[C@H](Cc4ccccc4)C2)CC3)c(=O)[nH]c1=O` [Compound 80], the IC50 at NK1 is 0.0295 µM; on NK2, more than 10 µM; at NK3, more than 10 µM.

Regarding `O=C(Cc1ccc2c(c1)OCO2)N1CCC2(CC1)CCN([C@H]1CCN(C(=O)c3cc(C(F)(F)F)cc(C(F)(F)F)c3)[C@H](Cc3ccccc3)C1)CC2` [Compound 81], the IC50 on NK1 is 0.115 µM; at NK2, 5.25 µM; on NK3, more than 10 µM.

In the case of `O=C1OC(CC(=O)N2CCC3(CC2)CCN([C@H]2CCN(C(=O)c4cc(C(F)(F)F)cc(C(F)(F)F)c4)[C@H](Cc4ccccc4)C2)CC3)c2ccccc21` (stereo partly drawn) [Compound 82], the IC50 at NK1 was 0.0468 µM; on NK2, 2 µM; on NK3 it was 8.91 µM.

In the case of `COc1cccc(CCC(=O)N2CCC3(CC2)CCN([C@H]2CCN(C(=O)c4cc(C(F)(F)F)cc(C(F)(F)F)c4)[C@H](Cc4ccccc4)C2)CC3)c1` [Compound 83], the IC50 on NK1 is 0.0363 µM; on NK2 it was 2.57 µM; on NK3 it was 8.91 µM.

On to `O=C(C=Cc1ccco1)N1CCC2(CC1)CCN([C@H]1CCN(C(=O)c3cc(C(F)(F)F)cc(C(F)(F)F)c3)[C@H](Cc3ccccc3)C1)CC2` [Compound 84], for which the IC50 on NK1 was 0.282 µM; at NK2 it was 7.24 µM; at NK3, more than 10 µM.

Consider `O=C(C=Cc1ccoc1)N1CCC2(CC1)CCN([C@H]1CCN(C(=O)c3cc(C(F)(F)F)cc(C(F)(F)F)c3)[C@H](Cc3ccccc3)C1)CC2` [Compound 85], for which the IC50 was 0.309 µM on NK1, more than 10 µM at NK2 and more than 10 µM on NK3.

Consider `C/C(=C\C(=O)N1CCC2(CC1)CCN([C@H]1CCN(C(=O)c3cc(C(F)(F)F)cc(C(F)(F)F)c3)[C@H](Cc3ccccc3)C1)CC2)C(F)(F)F` [Compound 86], for which the figures for the IC50 at NK1, on NK2 and at NK3 were 0.129 µM, more than 10 µM and more than 10 µM, respectively.

In the case of `O=C(C(CO)c1ccccc1)N1CCC2(CC1)CCN([C@H]1CCN(C(=O)c3cc(C(F)(F)F)cc(C(F)(F)F)c3)[C@H](Cc3ccccc3)C1)CC2` (stereo partly drawn) [Compound 88], the IC50 on NK1 was 0.0417 µM; on NK2, 3.02 µM; at NK3 it was more than 10 µM.

Consider `O=C(c1cc(C(F)(F)F)cc(C(F)(F)F)c1)N1CC[C@H](N2CCC3(CCN(C(=O)C4(c5ccccc5)CC4)CC3)CC2)C[C@H]1Cc1ccccc1` [Compound 89], for which the IC50 at NK1 was 0.148 µM; at NK2, 2.51 µM; on NK3, more than 10 µM.

Turning to `O=C(c1cc(C(F)(F)F)cc(C(F)(F)F)c1)N1CC[C@H](N2CCC3(CCN(C(=O)C4(c5ccccc5)CCCC4)CC3)CC2)C[C@H]1Cc1ccccc1` [Compound 90], the IC50 on NK1 was 0.355 µM; at NK2, 5.37 µM; on NK3 it was more than 10 µM.

For the molecule `O=C(c1cc(C(F)(F)F)cc(C(F)(F)F)c1)N1CC[C@H](N2CCC3(CC2)CCN(S(=O)(=O)C(F)(F)F)CC3)C[C@H]1Cc1ccccc1` [Compound 91], the IC50 at NK1 is 0.0871 µM; on NK2, 1.38 µM; on NK3 it was 4.37 µM.

As for `O=C(c1cc(C(F)(F)F)cc(C(F)(F)F)c1)N1CCC(N2CCC3(CC2)CCN(S(=O)(=O)c2cccs2)CC3)CC1Cc1ccccc1` (stereo not drawn) [Compound 92], the IC50 on NK1 is 0.017 µM; on NK2, 1.32 µM; at NK3, 0.339 µM.

In the case of `O=C(c1cc(C(F)(F)F)cc(C(F)(F)F)c1)N1CC[C@H](N2CCC3(CC2)CCN(S(=O)(=O)c2ccsc2)CC3)C[C@H]1Cc1ccccc1` [Compound 93], the IC50 was 0.0257 µM on NK1, 1.1 µM at NK2 and 0.501 µM on NK3.

Consider `O=C(c1cc(C(F)(F)F)cc(C(F)(F)F)c1)N1CC[C@H](N2CCC3(CC2)CCN(S(=O)(=O)c2ccc(Cl)s2)CC3)C[C@H]1Cc1ccccc1` [Compound 94], for which the IC50 is 0.132 µM on NK1, more than 10 µM on NK2 and 0.575 µM at NK3.

`O=C(c1cc(C(F)(F)F)cc(C(F)(F)F)c1)N1CC[C@H](N2CCC3(CC2)CCN(S(=O)(=O)c2ccc(Br)s2)CC3)C[C@H]1Cc1ccccc1` [Compound 95]: the IC50 was 0.269 µM at NK1, 1.91 µM at NK2 and 2.34 µM at NK3.

As for `O=C(c1cc(C(F)(F)F)cc(C(F)(F)F)c1)N1CC[C@H](N2CCC3(CC2)CCN(S(=O)(=O)c2cc(Cl)c(Cl)s2)CC3)C[C@H]1Cc1ccccc1` [Compound 96], the IC50 at NK1 is 0.468 µM; at NK2, 1.26 µM; at NK3, approximately 10 µM.

In the case of `O=C(c1cc(C(F)(F)F)cc(C(F)(F)F)c1)N1CC[C@H](N2CCC3(CC2)CCN(S(=O)(=O)c2cc(Br)c(Br)s2)CC3)C[C@H]1Cc1ccccc1` [Compound 98], the IC50 at NK1 was 0.977 µM; on NK2, more than 10 µM; at NK3, more than 10 µM.

On to `O=C(c1cc(C(F)(F)F)cc(C(F)(F)F)c1)N1CC[C@H](N2CCC3(CC2)CCN(S(=O)(=O)c2c(Cl)sc(Cl)c2Br)CC3)C[C@H]1Cc1ccccc1` [Compound 99], for which the IC50 at NK1 is 0.562 µM; at NK2, more than 10 µM; at NK3 it was more than 10 µM.

Consider `Cc1nc(S(=O)(=O)N2CCC3(CCN([C@H]4CCN(C(=O)c5cc(C(F)(F)F)cc(C(F)(F)F)c5)[C@H](Cc5ccccc5)C4)CC3)CC2)cn1C` [Compound 100], for which the IC50 on NK1 is 0.012 µM; on NK2, 1.26 µM; at NK3, 0.331 µM.
